Reference: patent publication US20230414778A1, “COMBINATION OF ANTIBODY-DRUG CONJUGATE WITH ANTI-SIRPalpha ANTIBODY” (DAIICHI SANKYO COMPANY, LIMITED, priority 2020, published 2023)

Experiments:
[1] = system: mouse colorectal cancer cell line CT26.WT; assay: ICD induction evaluation (in vitro): ATP in culture supernatant; assay type: cell-based; conditions: CT26.WT culture supernatant after 24 hours; MTX 0.4-6 μM vs control (0 μM); compound (A) 1-16 μM vs R10 or R10-DMSO
Method: In cancer cells treated with different compounds, the ATP level, and the expression level of HMGB1, which serve as an index of Immunogenic cell death (ICD), were measured. Cells of mouse colorectal cancer cell line CT26.WT were seeded in a 6-well plate and cultured overnight. After the supernatant was removed, the cells were washed twice with PBS. Compound (A) was dissolved in RPMI1640 culture solution containing 10% FBS (R10) to prepare solutions having a final concentration of 0, 1, 4 and 16 μM. As a positive control, Mitoxantrone (MTX) was dissolved in DMSO and added at a final concentration of 0.4, 1.5 and 6 μM. To the control (0 μM) herein, DMSO was added in the same amount as that of compound (A) (R10-DMSO). Twenty four hours later, the culture supernatant was collected, and the levels of ATP and HMGB1 were measured. The level of ATP was measured by adding the culture supernatant in a 96-well white plate, adding the same amount of Back titer-Glo (manufactured by Promega Corporation) and determining the amount of luminescence by a plate reader. The level of HMGB1 was detected by a HMGB1 ELISA-kit (manufactured by Shino-Test Corporation) in accordance with the Sandwich ELISA method. […] The absorbance at 405 nm was measured by a plate reader. […] The results satisfying P<0.05 (two-sided test) were determined as being significant.

[2] = system: mouse colorectal cancer cell line CT26.WT; assay: ICD induction evaluation (in vitro): HMGB1 in culture supernatant (ELISA); assay type: cell-based; conditions: for release of HMGB1, maximum, relative to control: CT26.WT culture supernatant after 24 hours, MTX 0.4-6 μM vs control (0 μM), compound (A) 1-16 μM vs R10 or R10-DMSO; for HMGB1 released in the culture supernatant (confirmation of ICD induction): Example 3, CT26.WT, compound (A) 4 μM or MTX 1 μM, 24 hours
Method: In cancer cells treated with different compounds, the ATP level, and the expression level of HMGB1, which serve as an index of Immunogenic cell death (ICD), were measured. Cells of mouse colorectal cancer cell line CT26.WT were seeded in a 6-well plate and cultured overnight. After the supernatant was removed, the cells were washed twice with PBS. Compound (A) was dissolved in RPMI1640 culture solution containing 10% FBS (R10) to prepare solutions having a final concentration of 0, 1, 4 and 16 μM. As a positive control, Mitoxantrone (MTX) was dissolved in DMSO and added at a final concentration of 0.4, 1.5 and 6 μM. To the control (0 μM) herein, DMSO was added in the same amount as that of compound (A) (R10-DMSO). Twenty four hours later, the culture supernatant was collected, and the levels of ATP and HMGB1 were measured. The level of ATP was measured by adding the culture supernatant in a 96-well white plate, adding the same amount of Back titer-Glo (manufactured by Promega Corporation) and determining the amount of luminescence by a plate reader. The level of HMGB1 was detected by a HMGB1 ELISA-kit (manufactured by Shino-Test Corporation) in accordance with the Sandwich ELISA method. In the plate provided in the kit, a test buffer was added, and thereafter, an HMGB1 standard solution diluted with the test buffer and the culture supernatant were added thereto. It was allowed to stand at 37° C. for 24 hours. After the supernatant was removed and the cells were washed five times with PBS/Tween 20 (200 μL/well), a secondary-antibody solution provided in the kit was added in an amount of 100 μL/well. It was allowed to stand at room temperature for 2 hours. After the supernatant was removed, the cells were washed five times with PBS/Tween 20 (200 μL/well). Thereafter, a color-producing solution provided in the kit was added in an amount of 100 μL/well. The plate was allowed to stand at room temperature for 30 minutes. A stop solution (100 μL/well) was added and stirred. The absorbance at 405 nm was measured by a plate reader. The results of the control group and compound (A) group were compared in accordance with the Dunnett's test. P value was expressed to four decimal places. The results satisfying P<0.05 (two-sided test) were determined as being significant.
Cells of mouse colorectal cancer cell line CT26.WT were seeded in a cell-culture flask and cultured overnight. The supernatant was removed and the cells were washed twice with PBS. To induce ICD, compound (A) (4 μM) or MTX (1 μM) was added in a RPMI1640 culture solution containing 10% FBS (R10). Twenty four hours later, HMGB1 in the culture supernatant was measured in accordance with the method shown in Example 1 in order to confirm ICD induction.

[3] = system: spleen cells (CD4-positive / CD8-positive T cells, Tcm); assay: FCM analysis of spleen cells (T cell populations); assay type: in vivo, mouse; conditions: for ratio occupied by Tcm in CD4-positive T cells compared to NCD treatment group: PBS administration (FIG. 29A); for ratio occupied by Tcm in CD8-positive T cells compared to NCD treatment group: PBS administration (FIG. 29B); for ratio occupied by CD4-positive T cells in the whole cells / ratio occupied by CD8-positive T cells in the whole cells: plus anti-SIRPα antibody (5C12) (FIG. 30C)
Method: From each of the mice used in Example 3, the spleen was excised out and spleen cells were prepared by use of PBS and seeded in a 96-well (round bottom) plate at 1×10^6 cells/well. After centrifugation was carried out at 1200 rpm for 3 minutes, the supernatant was removed. […] (manufactured by Biolegend, Inc.) diluted to 1/20 with PBS was added up to 100 μL/well. After standing at room temperature for 30 minutes, centrifugation was carried out at 1200 rpm for 3 minutes. The supernatant was removed, and primary-antibody solutions (FITC anti-CD36 antibody, PerCP anti-CD4 antibody, PE/Cy7 anti-CD8a antibody, APC anti-CD62L antibody, and APC/Cy7 anti-CD44 antibody: all manufactured by Biolegend, Inc.) were diluted with FACS buffer (1 mM EDTA, 5% FBS) and added in an amount of 50 μL/well. After standing in a dark place at 4° C. for 25 minutes, centrifugation was carried out at 1200 rpm for 3 minutes, and then the supernatant was removed. Washing was carried out twice with FACS buffer (200 μL/wells). After centrifugation, the supernatant was removed. A suspension was made with Stabilizing Fixative (manufactured by Becton, Dickinson and Company) and allowed to stand at room temperature for 10 minutes. Measurement was carried out by flow cytometry (FACS CantoII: manufactured by Becton, Dickinson and Company). Data were analyzed by use of FlowJo (manufactured by TreeStar Inc). Comparison between the NCD group and each of the drug treatment groups, or comparison among the PBS administration group, the anti-SIRPα antibody group and an anti-CD47 antibody group in each of the cell treatment groups was made in accordance with the Dunnett's multiple comparison. P value was expressed to four decimal places and the results satisfying P<0.05 (two-sided test) were determined as being significant.
Note that individual populations in the CD4-positive T cells and CD8-positive T cells were identified in the following conditions.
Tcm: central memory T cells [CD44(+) CD62L(+)]

[4] = plus anti-CD47 antibody (MIAP410) (FIG. 30A)
[5] = plus anti-CD47 antibody (MIAP410) (FIG. 30B)
[6] = plus anti-SIRPα antibody (5C12) (FIG. 30A)
[7] = plus anti-SIRPα antibody (5C12) (FIG. 30B)

| SMILES | release of ATP, maximum, relative to control [1] | release of HMGB1, maximum, relative to control [2] | HMGB1 released in the culture supernatant (confirmation of ICD induction) [2] | ratio occupied by Tcm in CD4-positive T cells compared to NCD treatment group [3] | ratio occupied by Tcm in CD8-positive T cells compared to NCD treatment group [3] | ratio occupied by Tcm in CD4-positive T cells compared to the _PBS group of the same drug [3, 4] | ratio occupied by Tcm in CD8-positive T cells compared to the _PBS group of the same drug [3, 5] | ratio occupied by Tcm in CD4-positive T cells compared to the _PBS group of the same drug [3, 6] | ratio occupied by Tcm in CD8-positive T cells compared to the _PBS group of the same drug [3, 7] | ratio occupied by CD4-positive T cells in the whole cells [3] | ratio occupied by CD8-positive T cells in the whole cells [3] |
| --- | --- | --- | --- | --- | --- | --- | --- | --- | --- | --- | --- |
| O=C1c2c(O)ccc(O)c2C(=O)c2c(NCCNCCO)ccc(NCCNCCO)c21 [MTX, Mitoxantrone, reference compound] | about 4 times | about 3 times | released | significantly increased | significantly increased | tendency to increase | tendency to increase | tendency to increase | significantly increased | tendency to increase | significantly increased |
| CC[C@@]1(O)C(=O)OCc2c1cc1n(c2=O)Cc2c-1nc1cc(F)c(C)c3c1c2[C@@H](NC(=O)CO)CC3 [compound (A)] | about 4.6 times | about 4.6 times | released | significantly increased | significantly increased | significantly decreased | significantly decreased | tendency to increase | substantially the same value | significantly increased | tendency to increase |
